The values below come from publication PMC10533401, “Development of two mouse strains conditionally expressing bright luciferases with distinct emission spectra as new tools for in vivo imaging” (Lab Animal, 2023).

This test deals with T1, oFluc.
T1 construct: gene firefly luciferase; not fused to Venus
The test can be described thus: luminescence intensity, luminometer, Michaelis-Menten fit. It is filed as biochemical, Pyrocoelia matsumurai. The note with it: 0.1 M citric acid/0.1 M Na2HPO4 pH 7.0, 1 mM ATP, 2 mM MgSO4, D-luciferin 0-990 µM; partially purified enzyme. As for the experimental part:
luminescence intensity, luminometer, Michaelis-Menten fit on oFluc | Km for oFluc or Venus/Akaluc for D-luciferin or AkaLumine were determined

Consider `O=C(O)[C@H]1CSC(c2nc3ccc(O)cc3s2)=N1` [D-luciferin], for which the Km (as a rule, the concentration of substrate that gives half-maximal velocity) was found to be 31.9 µM.
